Source: US20240261259A1 (priority 2021, published 2024)

Test system: FLT3 mutant positive AML
Assay: Clinical response to midostaurin plus chemotherapy, Princess Margaret cohort of 54 AML patients
Assay type: in vivo, human
[1] = midostaurin plus chemotherapy, 54 FLT3 mutant-positive AML patients

**Q.** Which results are given for `CO[C@@H]1[C@H](N(C)C(=O)c2ccccc2)C[C@H]2O[C@]1(C)n1c3ccccc3c3c4c(c5c6ccccc6n2c5c31)C(=O)NC4` [midostaurin, N-[(9S,I0R,I IR,I3R)-2,3,I0,I I,I2,I3-hexahydro-I0-methoxy-9-methyl-I-oxo-9,I3-epoxy-IH, 9H-diindolo[1,2,3-gh: 3′,2′,I′-Im]pyrrolo[3,4-j][I, 7]benzodiazonin-I I-yl]-N-methylbenzamide]?
**A.** Responses to midostaurin, average [1]: 84 weeks; Responses to midostaurin, range [1]: 0-513 weeks; patients refractory or relapsed at the time of carrying out the analysis (of 54 AML patients treated with midostaurin plus chemotherapy): 25 patients
